Test system in the first data set: not listed separately
The data set is described as follows: Cytotoxicity against mouse HT-22 cells assessed as cell viability incubated for 24 hrs by CCK-8 method.
Details: not given
The data set is classed as toxicity, cell-based.
As for `Cc1ccc(C(=O)NCCc2c[nH]c3cc(C)ccc23)c(O)c1`, the IC50 (as a rule, the concentration needed to halve the response being measured) at 24 h was > 100 µM.

On to `Cc1ccc(O)c(C(=O)NCCc2c[nH]c3ccccc23)c1`, for which the half-inhibitory concentration (IC50) at 24 h was 51.1 µM.

As to `COc1cccc(C(=O)NCCc2c[nH]c3ccccc23)c1O`, the IC50 at 24 h is > 100 µM.

Consider `O=C(NCCc1c[nH]c2ccccc12)c1cc(Cl)ccc1O`, for which the half-maximal inhibitory concentration (IC50) at 24 h is > 100 µM.

Regarding `COc1cc(Cl)c2c(CCNC(=O)c3ccc(C)cc3O)c[nH]c2c1`, the concentration for half-maximal inhibition (IC50) at 24 h is > 100 µM.

`COc1cc2[nH]cc(CCNC(=O)c3ccc(C)cc3O)c2cc1OC`: the half-maximal inhibitory concentration (IC50) at 24 h came out at 54.6 µM.

With `Cc1ccc(C(=O)NCCc2c[nH]c3ccc(Cl)cc23)c(O)c1`, the concentration for half-maximal inhibition (IC50) at 24 h turned out to be 61.2 µM.

As for `Cc1ccc(C(=O)NCCc2c[nH]c3c(Cl)cccc23)c(O)c1`, the IC50 at 24 h is > 100 µM.

Take `Cc1ccc(C(=O)NCCc2c[nH]c3c(N(C)C)cccc23)c(O)c1`: the IC50 at 24 h came to 59.8 µM.

As to `Cc1ccc(C(=O)NCCc2c[nH]c3cc(Br)ccc23)c(O)c1`, the concentration for half-maximal inhibition (IC50) at 24 h was 70.8 µM.

For `Cc1ccc(C(=O)NCCc2c[nH]c3cc(F)ccc23)c(O)c1`, the IC50 at 24 h is > 100 µM.

As for `Cc1ccc(C(=O)NCCc2c[nH]c3cc(F)cc(F)c23)c(O)c1`, the 50% inhibitory concentration (IC50) at 24 h is 61.9 µM.

For `O=C(NCCc1c[nH]c2ccccc12)c1cc(Br)ccc1O`, the concentration for half-maximal inhibition (IC50) at 24 h was found to be 64.7 µM.

As for `Cc1cccc(C(=O)NCCc2c[nH]c3ccccc23)c1O`, the IC50 at 24 h stood at 51.5 µM.

As to `O=C(NCCc1c[nH]c2ccccc12)c1ccccc1O`, the half-inhibitory concentration (IC50) at 24 h is > 100 µM.

As for `O=C(NCCc1c[nH]c2ccccc12)c1c(O)cccc1F`, the concentration for half-maximal inhibition (IC50) at 24 h is > 100 µM.

As to `Cc1ccc(C(=O)NCCc2c[nH]c3c(Br)cccc23)c(O)c1`, the half-inhibitory concentration (IC50) at 24 h was > 100 µM.

Consider `COc1ccc2c(CCNC(=O)c3ccc(C)cc3O)c[nH]c2c1`, for which the 50% inhibitory concentration (IC50) at 24 h was 102 µM.

Regarding `Cc1ccc(C(=O)NCCc2c[nH]c3c(C)cccc23)c(O)c1`, the IC50 at 24 h was > 100 µM.

On to `CNc1ccc2[nH]cc(CCNC(=O)c3ccc(C)cc3O)c2c1`, for which the concentration for half-maximal inhibition (IC50) at 24 h is > 100 µM.

For `Cc1ccc(C(=O)NCCc2c[nH]c3cc(Cl)ccc23)c(O)c1`, the IC50 at 24 h was found to be 63.1 µM.

With `COc1cccc(O)c1C(=O)NCCc1c[nH]c2ccccc12`, the IC50 at 24 h was 8.06 µM.

The next data set deals with HT-22. The data set is described as follows: Neuroprotective activity against OGD/R induced cell damage in mouse HT-22 cells assessed as cell viability at 10 uM measured after 24 hrs by MTT assay (reference value: 69.01 +/-2.90%). Type of data set: functional. The note with it: read-out: Activity.
`Cc1ccc(C(=O)NCCc2c[nH]c3cc(C)ccc23)c(O)c1`: the viability at 10 µM is 60.2%.

In the case of `Cc1ccc(O)c(C(=O)NCCc2c[nH]c3ccccc23)c1`, the viability at 10 µM amounted to 76.5%.

Regarding `COc1cccc(C(=O)NCCc2c[nH]c3ccccc23)c1O`, the viability at 10 µM turned out to be 87.8%.

For `O=C(NCCc1c[nH]c2ccccc12)c1cc(Cl)ccc1O`, the viability at 10 µM was 77.2%.

Regarding `COc1cc(Cl)c2c(CCNC(=O)c3ccc(C)cc3O)c[nH]c2c1`, the viability at 10 µM is 60.1%.

As to `COc1cc2[nH]cc(CCNC(=O)c3ccc(C)cc3O)c2cc1OC`, the viability at 10 µM turned out to be 75%.

Turning to `Cc1ccc(C(=O)NCCc2c[nH]c3ccc(Cl)cc23)c(O)c1`, the viability at 10 µM came to 76%.

As for `Cc1ccc(C(=O)NCCc2c[nH]c3c(Cl)cccc23)c(O)c1`, the viability at 10 µM worked out at 74.8%.

Consider `Cc1ccc(C(=O)NCCc2c[nH]c3c(N(C)C)cccc23)c(O)c1`, for which the viability at 10 µM turned out to be 87.1%.

`Cc1ccc(C(=O)NCCc2c[nH]c3cc(Br)ccc23)c(O)c1`: the viability at 10 µM was determined as 66.2%.

Consider `Cc1ccc(C(=O)NCCc2c[nH]c3cc(F)ccc23)c(O)c1`, for which the viability at 10 µM was 77.7%.

With `Cc1ccc(C(=O)NCCc2c[nH]c3cc(F)cc(F)c23)c(O)c1`, the viability at 10 µM is 89.2%.

With `O=C(NCCc1c[nH]c2ccccc12)c1cc(Br)ccc1O`, the viability at 10 µM was found to be 73.4%.

Take `Cc1cccc(C(=O)NCCc2c[nH]c3ccccc23)c1O`: the viability at 10 µM was 87.2%.

As for `O=C(NCCc1c[nH]c2ccccc12)c1ccccc1O`, the viability at 10 µM is 83%.

Take `O=C(NCCc1c[nH]c2ccccc12)c1c(O)cccc1F`: the viability at 10 µM came out at 87.7%.

For `Cc1ccc(C(=O)NCCc2c[nH]c3c(Br)cccc23)c(O)c1`, the viability at 10 µM is 78.1%.

For `COc1ccc2c(CCNC(=O)c3ccc(C)cc3O)c[nH]c2c1`, the viability at 10 µM was found to be 61.5%.

As to `Cc1ccc(C(=O)NCCc2c[nH]c3c(C)cccc23)c(O)c1`, the viability at 10 µM amounted to 79.5%.

Take `CNc1ccc2[nH]cc(CCNC(=O)c3ccc(C)cc3O)c2c1`: the viability at 10 µM turned out to be 82.4%.

For `Cc1ccc(C(=O)NCCc2c[nH]c3cc(Cl)ccc23)c(O)c1`, the viability at 10 µM was found to be 64.6%.

For the compound `COc1cccc(O)c1C(=O)NCCc1c[nH]c2ccccc12`, the viability at 10 µM is 59.2%.

Test system in the next data set: not listed separately
The data set can be described thus: Cytotoxicity against mouse BV-2 cells assessed as cell viability incubated for 24 hrs by CCK-8 method. The data set is classed as toxicity, cell-based.
Details: not given
On the technique in general: Formazan colour is commonly taken as a measure of viable cells.
As to `Cc1ccc(C(=O)NCCc2c[nH]c3cc(C)ccc23)c(O)c1`, the IC50 at 24 h was > 100 µM.

For the compound `Cc1ccc(O)c(C(=O)NCCc2c[nH]c3ccccc23)c1`, the IC50 at 24 h was determined as 50.2 µM.

In the case of `COc1cccc(C(=O)NCCc2c[nH]c3ccccc23)c1O`, the IC50 at 24 h was > 100 µM.

Take `O=C(NCCc1c[nH]c2ccccc12)c1cc(Cl)ccc1O`: the IC50 at 24 h was > 100 µM.

For the compound `COc1cc(Cl)c2c(CCNC(=O)c3ccc(C)cc3O)c[nH]c2c1`, the IC50 at 24 h is > 100 µM.

Take `COc1cc2[nH]cc(CCNC(=O)c3ccc(C)cc3O)c2cc1OC`: the half-maximal inhibitory concentration (IC50) at 24 h turned out to be 26.5 µM.

With `Cc1ccc(C(=O)NCCc2c[nH]c3ccc(Cl)cc23)c(O)c1`, the concentration for half-maximal inhibition (IC50) at 24 h stood at 80.5 µM.

For the compound `Cc1ccc(C(=O)NCCc2c[nH]c3c(Cl)cccc23)c(O)c1`, the IC50 at 24 h is 62.2 µM.

Turning to `Cc1ccc(C(=O)NCCc2c[nH]c3c(N(C)C)cccc23)c(O)c1`, the half-inhibitory concentration (IC50) at 24 h is > 100 µM.

Consider `Cc1ccc(C(=O)NCCc2c[nH]c3cc(Br)ccc23)c(O)c1`, for which the IC50 at 24 h is 46.6 µM.

As to `Cc1ccc(C(=O)NCCc2c[nH]c3cc(F)ccc23)c(O)c1`, the half-maximal inhibitory concentration (IC50) at 24 h is > 100 µM.

As to `Cc1ccc(C(=O)NCCc2c[nH]c3cc(F)cc(F)c23)c(O)c1`, the half-inhibitory concentration (IC50) at 24 h is 32.7 µM.

`O=C(NCCc1c[nH]c2ccccc12)c1cc(Br)ccc1O`: the IC50 at 24 h was found to be 68.2 µM.

Take `Cc1cccc(C(=O)NCCc2c[nH]c3ccccc23)c1O`: the IC50 at 24 h came out at 36.1 µM.

On to `O=C(NCCc1c[nH]c2ccccc12)c1ccccc1O`, for which the 50% inhibitory concentration (IC50) at 24 h was 55.1 µM.

For the compound `O=C(NCCc1c[nH]c2ccccc12)c1c(O)cccc1F`, the IC50 at 24 h was > 100 µM.

As to `Cc1ccc(C(=O)NCCc2c[nH]c3c(Br)cccc23)c(O)c1`, the IC50 at 24 h was found to be 52.8 µM.

For the compound `COc1ccc2c(CCNC(=O)c3ccc(C)cc3O)c[nH]c2c1`, the IC50 at 24 h was > 100 µM.

`Cc1ccc(C(=O)NCCc2c[nH]c3c(C)cccc23)c(O)c1`: the concentration for half-maximal inhibition (IC50) at 24 h worked out at 39.1 µM.

For the compound `CNc1ccc2[nH]cc(CCNC(=O)c3ccc(C)cc3O)c2c1`, the half-maximal inhibitory concentration (IC50) at 24 h came to 95.4 µM.

Consider `Cc1ccc(C(=O)NCCc2c[nH]c3cc(Cl)ccc23)c(O)c1`, for which the IC50 at 24 h was 52.5 µM.

As for `COc1cccc(O)c1C(=O)NCCc1c[nH]c2ccccc12`, the 50% inhibitory concentration (IC50) at 24 h is 21.7 µM.
